Here are results for 2 compounds from ChEMBL document CHEMBL4622879, “Structural Revision of Garcinielliptin Oxide and Garcinielliptone E” (J Nat Prod, 2020).

Molecules are shown by their SMILES. Calls of active or inactive are those of the source. No cut-off for these calls is given here.

A word on the IC50: it is the midpoint of a concentration-inhibition curve. A higher IC50 goes with weaker potency.

Test [1] deals with MDA-MB-231. The test can be described thus: Cytotoxicity against human MDA-MB-231 cells at 40 uM after 1 to 11 days by tetrazolium reagent based assay. It is filed as functional, cell-based.
Test [2] relates to HCT-116. Kind of test: Cytotoxicity against human HCT116 cells at 40 uM after 1 to 11 days by tetrazolium reagent based assay. It is filed as functional, cell-based.
The subject of test [3] is RAW264.7. The test can be described thus: Antiinflammatory activity in mouse RAW264.7 assessed as reduction in LPS-induced NO production. In kind it is functional, cell-based.
The subject of test [4] is HepG2. The test can be described thus: Cytotoxicity against human HepG2 cells at 40 uM after 1 to 11 days by tetrazolium reagent based assay. In kind it is functional, cell-based.
Test [5] relates to K562. The test can be described thus: Cytotoxicity against human K562 cells at 40 uM after 1 to 11 days by tetrazolium reagent based assay. In kind it is functional, cell-based.
Test [6] deals with A549. Kind of test: Cytotoxicity against human A549 cells at 40 uM after 1 to 11 days by tetrazolium reagent based assay. In kind it is functional, cell-based.
The target of test [7] is Acetylcholinesterase (Homo sapiens, UniProt P22303). Kind of test: Inhibition of human erythrocyte acetylcholinesterase using acetylthiocholine as substrate preincubated for 20 mins followed by substrate addition and measured after 30 mins by Ellman's method. On the technique in general: Ellman's reagent forms a yellow product with free thiols.
Chain of Acetylcholinesterase (P22303 whole entry): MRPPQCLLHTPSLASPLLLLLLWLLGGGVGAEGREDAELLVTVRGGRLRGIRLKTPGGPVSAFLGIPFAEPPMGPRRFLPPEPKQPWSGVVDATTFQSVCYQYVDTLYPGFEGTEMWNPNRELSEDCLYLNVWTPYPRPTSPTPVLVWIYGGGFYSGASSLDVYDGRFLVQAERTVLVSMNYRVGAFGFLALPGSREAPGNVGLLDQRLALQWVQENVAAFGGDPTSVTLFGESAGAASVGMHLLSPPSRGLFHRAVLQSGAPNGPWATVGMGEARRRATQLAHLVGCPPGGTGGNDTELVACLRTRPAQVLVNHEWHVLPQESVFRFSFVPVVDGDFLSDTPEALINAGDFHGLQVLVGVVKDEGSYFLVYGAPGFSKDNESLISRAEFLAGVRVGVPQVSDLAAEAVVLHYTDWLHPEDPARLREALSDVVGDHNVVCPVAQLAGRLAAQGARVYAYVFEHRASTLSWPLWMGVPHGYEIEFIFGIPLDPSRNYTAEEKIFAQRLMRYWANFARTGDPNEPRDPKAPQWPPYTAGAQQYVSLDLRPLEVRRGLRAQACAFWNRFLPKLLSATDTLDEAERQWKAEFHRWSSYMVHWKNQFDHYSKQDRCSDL

On to `CCC(C)C(=O)[C@]12C(=O)[C@]3(CC=C(C)C)OC1(O)[C@](CC=C(C)C)(C[C@H](CC=C(C)C)C2(C)C)C3=O` (stereo partly drawn), for which the outcome in test [1], in test [2], in test [3], in test [4], in test [5] and in test [6] was inactive.

On to `CC(C)=CC[C@H]1C[C@]2(CC=C(C)C)C(=O)[C@]3(CC=C(C)C)O[C@@]1(C(=O)C(C)C)[C@@]2(O)C(C)(C)C3=O`, for which the result in test [1], in test [2], in test [3], in test [4], in test [5] and in test [6] was inactive. It took 20.7 µM to reach half-maximal inhibition in test [7] (IC50).
